Laboratory results: patent publication US20250144067A1, “PERSONALIZED STARVATION THERAPY FOR CANCER” (Faeth Therapeutics, Inc., priority 2021, published 2025)
Structures can show the parent of a compound that is named as a salt.

Legend:
[1] = tested on: NCI-H292 lung cancer cells; experiment: FDA drug screening, complete media vs cholesterol-free media without statin (TABLE 1); type: cell-based, human
[2] = tested on: NCI-H292 lung cancer cells; experiment: FDA drug screening, complete media vs cholesterol-free media with simvastatin (TABLE 2); type: cell-based, human; details: for Cholesterol-free media + simvastatin (0.04 μM) / Complete Media: NCI-H292 cells
[3] = Complete minus Cholesterol-free, >0 enhanced anti-cancer activity, about 0 neutral, <0 antagonist
[4] = NCI-H292 cells, cholesterol-free media without statin
[5] = cholesterol-free media with simvastatin 0.04 μM, FDA drug library screen (TABLE 2)
[6] = complete media, FDA drug library screen (TABLE 2)
[7] = complete media minus cholesterol-free media + simvastatin (0.04 μM), >0 enhanced anti-cancer activity, about 0 neutral, <0 antagonist
[8] = drug in cholesterol-free media with simvastatin 0.04 μM
[9] = complete media vs cholesterol-free media + simvastatin (0.04 μM), >0 enhanced anti-cancer activity, about 0 neutral, <0 antagonist
[10] = NCI-H292 cells, cholesterol-free media without statin, FDA drug library screen
[11] = NCI-H292 cells, complete media, FDA drug library screen
[12] = Complete minus Cholesterol-free, greater than 0 enhanced anti-cancer activity, about 0 neutral, below 0 antagonists
[13] = NCI-H292 cells in cholesterol-free media without statin
[14] = NCI-H292 cells in complete media
[15] = FDA library drug in cholesterol-free media with simvastatin 0.04 μM
[16] = FDA library drug in complete media
[17] = Complete minus Cholesterol-free, greater than 0 enhanced anti-cancer activity, about 0 neutral, below 0 antagonist
[18] = NCI-H292 cells, FDA drug library screen, cholesterol-free media without statin
[19] = NCI-H292 cells, FDA drug library screen, complete media
[20] = FDA drug library screen, cholesterol-free media with simvastatin 0.04 μM
[21] = FDA drug library screen, complete media
[22] = complete vs cholesterol-free media, >0 enhanced anti-cancer activity, about 0 neutral, <0 antagonist
[23] = complete vs cholesterol-free media, greater than 0 enhanced anti-cancer activity, about 0 neutral, below 0 antagonists
[24] = complete media minus cholesterol-free media + simvastatin, >0 enhanced anti-cancer activity, about 0 neutral, <0 antagonist
[25] = Complete minus Cholesterol-free, […]
[26] = complete media minus cholesterol-free media + simvastatin (0.04 μM), […]
[27] = cholesterol-free media with simvastatin 0.04 μM, cell growth value in FDA drug screen
[28] = complete media, cell growth value in FDA drug screen

COc1ncnc(NS(=O)(=O)c2ccc(N)cc2)c1OC [Sulfadoxine]
Difference [1, 3]: −0.27 | Cholesterol-free [1, 4]: 1.26 | Complete ([1]; NCI-H292 cells, complete media): 0.986 | Cholesterol-free media + simvastatin (0.04 μM) [2, 5]: 1.1 | Complete Media [2, 6]: 1.093 | Difference [2, 7]: −0.01

[H]/N=C(/N)NS(=O)(=O)c1ccc(N)cc1 [Sulfaguanidine]
Difference [1, 3]: −0.24 | Cholesterol-free [1, 4]: 1.183 | Complete ([1]; NCI-H292 cells, complete media): 0.939 | Cholesterol-free media + simvastatin (0.04 μM) [2, 8]: 1.092 | Complete Media ([2]; drug in complete media): 0.8866 | Difference [2, 9]: −0.21

COc1nccnc1NS(=O)(=O)c1ccc(N)cc1 [Sulfalene]
Difference [1, 3]: −0.03 | Cholesterol-free [1, 10]: 1.1 | Complete [1, 11]: 1.067 | Cholesterol-free media + simvastatin (0.04 μM) [2, 8]: 1.16 | Complete Media ([2]; drug in complete media): 0.9534 | Difference [2, 9]: −0.21

Cc1ccnc(NS(=O)(=O)c2ccc(N)cc2)n1 [Sulfamerazine]
Difference [1, 12]: −0.49 | Cholesterol-free [1, 13]: 1.498 | Complete [1, 14]: 1.009 | Cholesterol-free media + simvastatin (0.04 μM) [2, 15]: 2.163 | Complete Media [2, 16]: 1.355 | Difference [2, 9]: −0.81

COc1cnc(NS(=O)(=O)c2ccc(N)cc2)nc1 [Sulfameter]
Difference [1, 17]: −0.13 | Cholesterol-free [1, 18]: 0.9159 | Complete [1, 19]: 0.7824 | Cholesterol-free media + simvastatin (0.04 μM) [2, 5]: 0.9816 | Complete Media [2, 6]: 0.9471 | Difference [2, 7]: −0.03

Cc1cc(C)nc(NS(=O)(=O)c2ccc(N)cc2)n1 [Sulfamethazine]
Difference [1, 12]: −0.77 | Cholesterol-free [1, 13]: 1.661 | Complete [1, 14]: 0.8945 | Cholesterol-free media + simvastatin (0.04 μM) [2, 20]: 1.21 | Complete Media [2, 21]: 1.052 | Difference [2, 9]: −0.16

Cc1nnc(NS(=O)(=O)c2ccc(N)cc2)s1 [Sulfamethizole]
Cholesterol-free [1, 10]: 0.6059 | Complete [1, 11]: 1.186 | Difference [1, 22]: 0.58 | Cholesterol-free media + simvastatin (0.04 μM) [2, 5]: 1.154 | Complete Media [2, 6]: 1.13 | Difference [2, 7]: −0.02

Cc1cc(NS(=O)(=O)c2ccc(N)cc2)no1 [Sulfamethoxazole]
Cholesterol-free [1, 4]: 1.301 | Complete ([1]; NCI-H292 cells, complete media): 0.8647 | Difference [1, 23]: −0.44 | Cholesterol-free media + simvastatin (0.04 μM) [2, 8]: 1.223 | Complete Media ([2]; drug in complete media): 1.051 | Difference [2, 9]: −0.17

COc1cc(NS(=O)(=O)c2ccc(N)cc2)ncn1 [Sulfamonomethoxine]
Difference [1, 12]: −0.48 | Cholesterol-free [1, 13]: 1.378 | Complete [1, 14]: 0.8971 | Cholesterol-free media + simvastatin (0.04 μM) [2, 15]: 1.013 | Complete Media [2, 16]: 0.7465 | Difference [2, 9]: −0.27

Nc1ccc(S(N)(=O)=O)cc1 [Sulfanilamide]
Cholesterol-free [1, 4]: 1.317 | Complete ([1]; NCI-H292 cells, complete media): 1.005 | Difference [1, 23]: −0.31 | Cholesterol-free media + simvastatin (0.04 μM) [2, 15]: 1.221 | Complete Media [2, 16]: 0.9133 | Difference [2, 9]: −0.31

Nc1ccc(S(=O)(=O)Nc2ccnn2-c2ccccc2)cc1 [Sulfaphenazole]
Difference [1, 17]: −0.18 | Cholesterol-free [1, 18]: 1.174 | Complete [1, 19]: 0.9989 | Cholesterol-free media + simvastatin (0.04 μM) [2, 20]: 1.123 | Complete Media [2, 21]: 1.024 | Difference [2, 9]: −0.10

Nc1ccc(S(=O)(=O)Nc2ccccn2)cc1 [Sulfapyridine]
Difference [1, 3]: −0.02 | Cholesterol-free [1, 10]: 0.8112 | Complete [1, 11]: 0.7909 | Cholesterol-free media + simvastatin (0.04 μM) [2, 20]: 1.045 | Complete Media [2, 21]: 1.844 | Difference [2, 24]: 0.80

O=C(O)c1cc(/N=N/c2ccc(S(=O)(=O)Nc3ccccn3)cc2)ccc1O [Sulfasalazine]
Difference [1, 3]: −0.20 | Cholesterol-free [1, 4]: 1.104 | Complete ([1]; NCI-H292 cells, complete media): 0.9081 | Cholesterol-free media + simvastatin (0.04 μM) [2, 5]: 1.17 | Complete Media [2, 6]: 1.155 | Difference [2, 7]: −0.01

Nc1ccc(S(=O)(=O)Nc2nccs2)cc1 [Sulfathiazole (sodium)]
Difference [1, 3]: −0.22 | Cholesterol-free [1, 4]: 1.264 | Complete ([1]; NCI-H292 cells, complete media): 1.047 | Cholesterol-free media + simvastatin (0.04 μM) [2, 15]: 1.852 | Complete Media [2, 16]: 1.04 | Difference [2, 9]: −0.81

O=C1C(CC[S+]([O-])c2ccccc2)C(=O)N(c2ccccc2)N1c1ccccc1 (stereo not drawn) [Sulfinpyrazone]
Cholesterol-free [1, 4]: 1.3 | Complete ([1]; NCI-H292 cells, complete media): 0.9417 | Difference [1, 23]: −0.36 | Cholesterol-free media + simvastatin (0.04 μM) [2, 8]: 1.076 | Complete Media ([2]; drug in complete media): 0.9093 | Difference [2, 9]: −0.17

Cc1cc(NS(=O)(=O)c2ccc(N)cc2)nc(C)n1 [Sulfisomidin]
Difference [1, 25]: −0.21 | Cholesterol-free [1, 4]: 1.055 | Complete ([1]; NCI-H292 cells, complete media): 0.8471 | Cholesterol-free media + simvastatin (0.04 μM) [2, 15]: 1.147 | Complete Media [2, 16]: 0.7862 | Difference ([2]; complete media vs cholesterol-free media + simvastatin (0.04 μM), […]): −0.36

Cc1noc(NS(=O)(=O)c2ccc(N)cc2)c1C [Sulfisoxazole]
Cholesterol-free [1, 4]: 1.273 | Complete ([1]; NCI-H292 cells, complete media): 0.8703 | Difference [1, 23]: −0.40 | Cholesterol-free media + simvastatin (0.04 μM) [2, 20]: 1.12 | Complete Media [2, 21]: 1.045 | Difference [2, 9]: −0.08

COc1cc(S(=O)(=O)[O-])ccc1O.[K+] [Sulfogaiacol]
Difference [1, 25]: −0.01 | Cholesterol-free [1, 10]: 0.8896 | Complete [1, 11]: 0.8811 | Cholesterol-free media + simvastatin (0.04 μM) [2, 5]: 0.9781 | Complete Media [2, 6]: 0.9488 | Difference [2, 26]: −0.03

CC1=C(CC(=O)O)c2cc(F)ccc2/C1=C\c1ccc([S+](C)[O-])cc1 (stereo not drawn) [Sulindac]
Difference [1, 12]: −0.48 | Cholesterol-free [1, 13]: 1.336 | Complete [1, 14]: 0.8519 | Cholesterol-free media + simvastatin (0.04 μM) [2, 5]: 1.193 | Difference [2, 7]: −0.02

CCN1CCCC1CNC(=O)c1cc(S(N)(=O)=O)ccc1OC (stereo not drawn) [Sulpiride]
Difference [1, 3]: −0.22 | Cholesterol-free [1, 4]: 1.254 | Complete ([1]; NCI-H292 cells, complete media): 1.03 | Cholesterol-free media + simvastatin (0.04 μM) [2, 5]: 1.077 | Complete Media [2, 6]: 1.053 | Difference [2, 7]: −0.02

CCN(CC)CCNC(=O)c1c(C)[nH]c(/C=C2\C(=O)Nc3ccc(F)cc32)c1C [Sunitinib]
Difference [1, 3]: −0.01 | Cholesterol-free [1, 10]: 0.5331 | Complete [1, 11]: 0.523 | Cholesterol-free media + simvastatin (0.04 μM) [2, 15]: 1.48 | Complete Media [2, 16]: 1.121 | Difference [2, 9]: −0.36

CCOCC(O)COc1ccc(NC(=O)CC[S+](C)C)cc1.Cc1ccc(S(=O)(=O)[O-])cc1 (stereo not drawn) [Suplatast (Tosilate)]
Cholesterol-free [1, 10]: 0.9586 | Complete [1, 11]: 1.127 | Difference ([1]; complete vs cholesterol-free media, […]): 0.17 | Cholesterol-free media + simvastatin (0.04 μM) [2, 20]: 2.447 | Difference [2, 26]: −0.95

CC(C(=O)O)c1ccc(C(=O)c2cccs2)cc1 (stereo not drawn) [Suprofen]
Difference [1, 3]: −0.28 | Cholesterol-free [1, 4]: 1.108 | Complete ([1]; NCI-H292 cells, complete media): 0.8283 | Cholesterol-free media + simvastatin (0.04 μM) [2, 27]: 0.9436 | Complete Media [2, 28]: 0.9637 | Difference [2, 24]: 0.02

Cc1ccc(C(=O)Nc2ccc(S(=O)(=O)O)c3cc(S(=O)(=O)O)cc(S(=O)(=O)O)c23)cc1NC(=O)c1cccc(NC(=O)Nc2cccc(C(=O)Nc3cc(C(=O)Nc4ccc(S(=O)(=O)O)c5cc(S(=O)(=O)O)cc(S(=O)(=O)O)c45)ccc3C)c2)c1 [Suramin (sodium salt)]
Difference [1, 12]: −0.70 | Cholesterol-free [1, 13]: 1.64 | Complete [1, 14]: 0.9404 | Cholesterol-free media + simvastatin (0.04 μM) [2, 15]: 1.303 | Complete Media [2, 16]: 0.9716 | Difference [2, 9]: −0.33

Nc1c2c(nc3ccccc13)CCCC2 [Tacrine (hydrochloride)]
Cholesterol-free [1, 4]: 1.218 | Complete ([1]; NCI-H292 cells, complete media): 0.7601 | Difference [1, 23]: −0.46 | Cholesterol-free media + simvastatin (0.04 μM) [2, 20]: 1.139 | Complete Media [2, 21]: 1.054 | Difference [2, 9]: −0.08

Nc1c2c(nc3ccccc13)CCCC2 [Tacrine hydrochloride hydrate]
Cholesterol-free [1, 10]: 1.254 | Complete [1, 11]: 1.477 | Difference [1, 22]: 0.22 | Cholesterol-free media + simvastatin (0.04 μM) [2, 5]: 1.406 | Complete Media [2, 6]: 1.383 | Difference [2, 7]: −0.02

C=CC[C@@H]1/C=C(\C)C[C@H](C)C[C@H](OC)[C@H]2O[C@@](O)(C(=O)C(=O)N3CCCC[C@H]3C(=O)O[C@H](/C(C)=C/[C@@H]3CC[C@@H](O)[C@H](OC)C3)[C@H](C)[C@@H](O)CC1=O)[C@H](C)C[C@@H]2OC [Tacrolimus (monohydrate)]
Difference [1, 3]: −0.26 | Cholesterol-free [1, 4]: 1.012 | Complete ([1]; NCI-H292 cells, complete media): 0.7533 | Cholesterol-free media + simvastatin (0.04 μM) [2, 27]: 1.131 | Complete Media [2, 28]: 1.225 | Difference [2, 24]: 0.09

CN1CC(=O)N2[C@H](c3ccc4c(c3)OCO4)c3[nH]c4ccccc4c3C[C@@H]2C1=O [Tadalafil]
Cholesterol-free [1, 4]: 1.298 | Complete ([1]; NCI-H292 cells, complete media): 0.971 | Difference [1, 23]: −0.33 | Cholesterol-free media + simvastatin (0.04 μM) [2, 20]: 1.05 | Complete Media [2, 21]: 0.9711 | Difference [2, 9]: −0.08

CNC[C@H](O)[C@@H](O)[C@H](O)[C@H](O)CO.O=C(O)c1ccc2nc(-c3cc(Cl)cc(Cl)c3)oc2c1 [Tafamidis meglumine]
Difference [1, 3]: −0.03 | Cholesterol-free [1, 10]: 0.8398 | Complete [1, 11]: 0.8088 | Cholesterol-free media + simvastatin (0.04 μM) [2, 20]: 0.9551 | Difference [2, 24]: 0.20
